In US12642805B2, “Use of oxygenated cholesterol sulfates for treating at least one of insulin resistance, diabetes, and prediabetes” (Medicis Pharmaceutical Corporation, priority 2020, dated 2026):
Where two headings read alike, the source gives them in different places.

Assays:
[1] = single oral dose pharmacokinetic study in healthy and NASH subjects; type: in vivo, human; settings: for AUC(0-t) / AUC(0-inf) / Cmax / half-life / Tmax / Vd/F: human, plasma, po
Experimental: The present Example was a randomized, dose ranging, single dose safety and pharmacokinetic study of 25HC3S administered to subjects with NASH and control healthy subjects. […] For each cohort, 10 subjects with NASH were enrolled which were further classified into cirrhotic and non-cirrhotic. Each subject received only one dose of study treatment. The second cohort was dosed after a review of safety and tolerability data from Cohort 1.

[2] = Sprague Dawley, rat, in vivo, iv, 10 mg/kg
Experimental: (§1) Samples were profiled using high performance liquid chromatography with radiodetection and metabolic characterization was performed using mass spectrometry and tandem mass spectrometry analysis.

[3] = metabolite profiling of plasma and feces after oral dose; type: in vivo, rat; settings: rats 75 mg/kg oral
Excerpt: Radiolabeled components in plasma and feces extracts were profiled and identified using radio-high performance liquid chromatography (HPLC) and high performance liquid chromatography/mass spectrometry (HPLC/MS) methods.

[4] = tested on: DNMT1/3a/3b and 9 other epigenetic enzymes; test: epigenetic enzyme activity panel; type: biochemical
Excerpt: The major epigenetic regulation includes DNA and histone methylation, demethylation, acetylation, and deacetylation. The enzymes involved in the process are DNA and histone methyltransferases/demethylases, and acetyltransferases/deacetylases.

[5] = metabolite profiling of plasma, urine, feces after intravenous dose; settings: rats 10 mg/kg intravenous 25HC3S
Experimental: as §1

[6] = 50 mg single oral dose, Healthy
[7] = 200 mg single oral dose, Healthy

Molecule: C[C@H](CCCC(C)(C)O)[C@H]1CC[C@H]2[C@@H]3CC=C4C[C@@H](OS(=O)(=O)[O-])CC[C@]4(C)[C@H]3CC[C@]12C.[Na+] [25HC3S sodium, 25-hydroxycholesterol-3-sulfate sodium]
- CL/F, Geometric Mean [1, 6]: 118.11 L/h
- CL/F, Mean [1, 6]: 122.35 L/h
- CL/F, Geometric Mean ([1]; 50 mg single oral dose, NASH): 82.19 L/h
- CL/F, Mean ([1]; 50 mg single oral dose, NASH): 85.29 L/h
- CL/F, Geometric Mean [1, 7]: 169.32 L/h
- CL/F, Mean [1, 7]: 171.25 L/h
- CL/F, Geometric Mean ([1]; 200 mg single oral dose, NASH): 141.66 L/h
- CL/F, Mean ([1]; 200 mg single oral dose, NASH): 143.19 L/h
- AUC(0-t) ([1]; 50 mg, 50 mg single oral dose, Healthy, read-out: AUC0-12, Geometric Mean): 497 ng·h/mL
- AUC(0-t) ([1]; 50 mg, 50 mg single oral dose, Healthy, read-out: AUC0-12, Mean): 528 ng·h/mL
- AUC(0-t) ([1]; 50 mg, 50 mg single oral dose, Healthy, read-out: AUC0-last, Geometric Mean): 450 ng·h/mL
- AUC(0-t) ([1]; 50 mg, 50 mg single oral dose, Healthy, read-out: AUC0-last, Mean): 477 ng·h/mL
- AUC(0-inf) ([1]; 50 mg, 50 mg single oral dose, Healthy, read-out: AUCinf, Geometric Mean): 423 ng·h/mL
- AUC(0-inf) ([1]; 50 mg, 50 mg single oral dose, Healthy, read-out: AUCinf, Mean): 439 ng·h/mL
- Cmax ([1]; 50 mg, 50 mg single oral dose, Healthy, read-out: Cmax, Geometric Mean): 90.9 ng/mL
- Cmax ([1]; 50 mg, 50 mg single oral dose, Healthy, read-out: Cmax, Mean): 94 ng/mL
- half-life ([1]; 50 mg, 50 mg single oral dose, Healthy, read-out: T1/2, Geometric Mean (converted)): 1.89 h
- half-life ([1]; 50 mg, 50 mg single oral dose, Healthy, read-out: T1/2, Mean (converted)): 1.91 h
- Tmax ([1]; 50 mg, 50 mg single oral dose, Healthy, read-out: Tmax, Geometric Mean): 2.83 h
- Tmax ([1]; 50 mg, 50 mg single oral dose, Healthy, read-out: Tmax, Mean): 3.01 h
- Vd/F ([1]; 50 mg, 50 mg single oral dose, Healthy, read-out: Vz/F, Geometric Mean): 322 L
- Vd/F ([1]; 50 mg, 50 mg single oral dose, Healthy, read-out: Vz/F, Mean): 325 L
- AUC(0-t) ([1]; 50 mg, 50 mg single oral dose, NASH, read-out: AUC0-12, Geometric Mean): 598 ng·h/mL
- AUC(0-t) ([1]; 50 mg, 50 mg single oral dose, NASH, read-out: AUC0-12, Mean): 623 ng·h/mL
- AUC(0-t) ([1]; 50 mg, 50 mg single oral dose, NASH, read-out: AUC0-last, Geometric Mean): 476 ng·h/mL
- AUC(0-t) ([1]; 50 mg, 50 mg single oral dose, NASH, read-out: AUC0-last, Mean): 513 ng·h/mL
- AUC(0-inf) ([1]; 50 mg, 50 mg single oral dose, NASH, read-out: AUCinf, Geometric Mean): 608 ng·h/mL
- AUC(0-inf) ([1]; 50 mg, 50 mg single oral dose, NASH, read-out: AUCinf, Mean): 636 ng·h/mL
- Cmax ([1]; 50 mg, 50 mg single oral dose, NASH, read-out: Cmax, Geometric Mean): 108 ng/mL
- Cmax ([1]; 50 mg, 50 mg single oral dose, NASH, read-out: Cmax, Mean): 113 ng/mL
- half-life ([1]; 50 mg, 50 mg single oral dose, NASH, read-out: T1/2, Geometric Mean (converted)): 1.67 h
- half-life ([1]; 50 mg, 50 mg single oral dose, NASH, read-out: T1/2, Mean (converted)): 1.67 h
- Tmax ([1]; 50 mg, 50 mg single oral dose, NASH, read-out: Tmax, Geometric Mean): 2.31 h
- Tmax ([1]; 50 mg, 50 mg single oral dose, NASH, read-out: Tmax, Mean): 2.41 h
- Vd/F ([1]; 50 mg, 50 mg single oral dose, NASH, read-out: Vz/F, Geometric Mean): 198 L
- Vd/F ([1]; 50 mg, 50 mg single oral dose, NASH, read-out: Vz/F, Mean): 203 L
- AUC(0-t) ([1]; 200 mg, 200 mg single oral dose, Healthy, read-out: AUC0-12, Geometric Mean): 1160 ng·h/mL
- AUC(0-t) ([1]; 200 mg, 200 mg single oral dose, Healthy, read-out: AUC0-12, Mean): 1180 ng·h/mL
- AUC(0-t) ([1]; 200 mg, 200 mg single oral dose, Healthy, read-out: AUC0-last, Geometric Mean): 1170 ng·h/mL
- AUC(0-t) ([1]; 200 mg, 200 mg single oral dose, Healthy, read-out: AUC0-last, Mean): 1190 ng·h/mL
- AUC(0-inf) ([1]; 200 mg, 200 mg single oral dose, Healthy, read-out: AUCinf, Geometric Mean): 1180 ng·h/mL
- AUC(0-inf) ([1]; 200 mg, 200 mg single oral dose, Healthy, read-out: AUCinf, Mean): 1190 ng·h/mL
- Cmax ([1]; 200 mg, 200 mg single oral dose, Healthy, read-out: Cmax, Geometric Mean): 256 ng/mL
- Cmax ([1]; 200 mg, 200 mg single oral dose, Healthy, read-out: Cmax, Mean): 260 ng/mL
- half-life ([1]; 200 mg, 200 mg single oral dose, Healthy, read-out: T1/2, Geometric Mean (converted)): 1.72 h
- half-life ([1]; 200 mg, 200 mg single oral dose, Healthy, read-out: T1/2, Mean (converted)): 1.75 h
- Tmax ([1]; 200 mg, 200 mg single oral dose, Healthy, read-out: Tmax, Geometric Mean): 2.53 h
- Tmax ([1]; 200 mg, 200 mg single oral dose, Healthy, read-out: Tmax, Mean): 2.67 h
- Vd/F ([1]; 200 mg, 200 mg single oral dose, Healthy, read-out: Vz/F, Geometric Mean): 420 L
- Vd/F ([1]; 200 mg, 200 mg single oral dose, Healthy, read-out: Vz/F, Mean): 434 L
- AUC(0-t) ([1]; 200 mg, 200 mg single oral dose, NASH, read-out: AUC0-12, Geometric Mean): 1500 ng·h/mL
- AUC(0-t) ([1]; 200 mg, 200 mg single oral dose, NASH, read-out: AUC0-12, Mean): 1540 ng·h/mL
- AUC(0-t) ([1]; 200 mg, 200 mg single oral dose, NASH, read-out: AUC0-last, Geometric Mean): 1540 ng·h/mL
- AUC(0-t) ([1]; 200 mg, 200 mg single oral dose, NASH, read-out: AUC0-last, Mean): 1580 ng·h/mL
- AUC(0-inf) ([1]; 200 mg, 200 mg single oral dose, NASH, read-out: AUCinf, Geometric Mean): 1410 ng·h/mL
- AUC(0-inf) ([1]; 200 mg, 200 mg single oral dose, NASH, read-out: AUCinf, Mean): 1430 ng·h/mL
- Cmax ([1]; 200 mg, 200 mg single oral dose, NASH, read-out: Cmax, Geometric Mean): 319 ng/mL
- Cmax ([1]; 200 mg, 200 mg single oral dose, NASH, read-out: Cmax, Mean): 333 ng/mL
- half-life ([1]; 200 mg, 200 mg single oral dose, NASH, read-out: T1/2, Geometric Mean (converted)): 2.2 h
- half-life ([1]; 200 mg, 200 mg single oral dose, NASH, read-out: T1/2, Mean (converted)): 2.51 h
- Tmax ([1]; 200 mg, 200 mg single oral dose, NASH, read-out: Tmax, Geometric Mean): 2.65 h
- Tmax ([1]; 200 mg, 200 mg single oral dose, NASH, read-out: Tmax, Mean): 2.91 h
- Vd/F ([1]; 200 mg, 200 mg single oral dose, NASH, read-out: Vz/F, Geometric Mean): 449 L
- Vd/F ([1]; 200 mg, 200 mg single oral dose, NASH, read-out: Vz/F, Mean): 540 L

Molecule: C[C@H](CCCC(C)(C)O)[C@H]1CC[C@H]2[C@@H]3CC=C4C[C@@H](O)CC[C@]4(C)[C@H]3CC[C@]12C [25HC, 25-Hydroxycholesterol, reference compound]
- detection in plasma, urine, or feces samples [2]: Neither desmosterol sulfate nor 25-hydroxycholesterol was detected
- relative observed intensity (ROI) in plasma ([3]; 2 hour post-dose): 37%
- % of total dose in feces ([3]; pools 0 to 168 hours): 1.9%

Molecule: C[C@@H](CO)CCC[C@@H](C)[C@H]1CC[C@H]2[C@@H]3CC=C4C[C@@H](O)CC[C@]4(C)[C@H]3CC[C@]12C [27HC, 27-Hydroxycholesterol]
- effect on enzymatic activities [4]: no effect on other enzymes

Molecule: CC(C)CCC[C@@H](C)[C@H]1CC[C@H]2[C@@H]3CC=C4C[C@@H](OS(=O)(=O)O)CC[C@]4(C)[C@H]3CC[C@]12C [Xol3S, Cholesterol 3-Sulfate]
- effect on enzymatic activities [4]: did not significantly affect enzymatic activities

Molecule: CC(C)CCC[C@@H](C)[C@H]1CC[C@H]2[C@@H]3CC=C4C[C@@H](O)CC[C@]4(C)[C@H]3CC[C@]12C [Xol, Cholesterol]
- effect on enzymatic activities [4]: did not significantly affect enzymatic activities

Molecule: desmosterol sulfate
- detection in plasma, urine, or feces samples [5]: Neither desmosterol sulfate nor 25-hydroxycholesterol was detected
